From US20050288503A1, “Novel compounds” (priority 2002, published 2005) come the findings set out here.

For one assay, the target named is CSBP/p38 (Homo sapiens, UniProt Q16539). Description: CSBP/p38 Kinase Assay (32P transfer from ATP to EGFR-derived T669 peptide). The assay is classed as biochemical. To be noted: retested at 67 uM.
Sequence of CSBP/p38 (Q16539 whole entry): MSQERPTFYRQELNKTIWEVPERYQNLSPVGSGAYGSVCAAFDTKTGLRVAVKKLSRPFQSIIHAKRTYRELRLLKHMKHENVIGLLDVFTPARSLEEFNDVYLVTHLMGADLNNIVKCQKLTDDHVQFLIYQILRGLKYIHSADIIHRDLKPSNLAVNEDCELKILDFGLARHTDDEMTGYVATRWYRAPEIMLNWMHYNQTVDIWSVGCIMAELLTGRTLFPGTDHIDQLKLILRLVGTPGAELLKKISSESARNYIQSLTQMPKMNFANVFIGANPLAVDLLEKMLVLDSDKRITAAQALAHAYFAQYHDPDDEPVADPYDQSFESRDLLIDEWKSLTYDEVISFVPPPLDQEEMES
On to `Cn1cnc2c(N(C(N)=O)c3c(F)cccc3F)nc(-c3cc(F)cc(F)c3)nc21` [Example 46, 1-(2,6-difluoro-phenyl)-1-[2-(3,5-difluoro-phenyl)-9-methyl-9H-purin-6-yl]-urea], for which the “activity on retesting at a higher concentration” value was “active”.

Turning to `Cn1cnc2c(N(C(N)=O)c3c(F)cccc3F)nc(-c3ccc(Cl)cc3)nc21` [Example 35, 1-[2-(4-chloro-phenyl)-9-methyl-9H-purin-6-yl]-1-(2,6-difluoro-phenyl)-urea], the “activity on retesting at a higher concentration” value is on record as “active”.

Still in this assay, the particulars now being: yeast-expressed, activated and purified p38; 0.17 mM ATP; T669 peptide; read-out: positive inhibitory activity in the CSBP/p38 kinase assay at.
For `Cn1cnc2c(Nc3c(F)cccc3F)nc(-c3ccccc3Cl)nc21` [Example 11, [2-(2-chloro-phenyl)-9-methyl-9H-purin-6-yl]-(2,6-difluoro-phenyl)-amine], the IC50 is under 50 µM.

With `Cc1ccc(-c2nc(Nc3c(F)cccc3F)c3ncn(C)c3n2)cc1` [Example 14, (2,6-difluoro-phenyl)-(9-methyl-2-p-tolyl-9H-purin-6-yl)-amine], the IC50 was under 50 µM.

`Fc1ccccc1-c1nc(Nc2c(F)cccc2F)c2ncn(Cc3ccccc3)c2n1` [Example 23]: the IC50 is under 50 µM.

Consider `Cn1cnc2c(Nc3c(F)cccc3F)nc(-c3ccccc3F)nc21` [Example 17, (2,6-difluoro-phenyl)-[2-(2-fluoro-phenyl)-9-methyl-9H-purin-6-yl]-amine], for which the IC50 is under 50 µM.

Take `Cn1cnc2c(Nc3c(F)cccc3F)nc(-c3ccc(F)cc3F)nc21` [Example 19, (2,6-difluoro-phenyl)-[2-(2,4-difluoro-phenyl)-9-methyl-9H-purin-6 yl]-amine]: the IC50 was under 50 µM.

For the molecule `CN(C)CCn1cnc2c(Nc3c(F)cccc3F)nc(-c3ccccc3F)nc21` [Example 22, (2,6-difluoro-phenyl)-[9-(2-dimethylamino-ethyl)-2-(2-fluoro-phenyl)-9H-purin-6-yl]-amine], the IC50 is under 50 µM.
